This experiment has as its system isolated rat aorta. The experiment can be described thus: Calcium inhibitory properties: contractile response to potassium-induced depolarization on isolated rat aorta. Details: species or system isolated organ, male Wistar rats. The settings on record: for activity at 1 µM / activity at 0.1 µM / activity at 0.01 µM / activity at 0.001 µM: Rattus norvegicus, 1 h, read-out: % of the maximum contractional effect; for % of the maximum contractional effect: 60 min; for activity at 0.001 µM: 10^-9 M. An excerpt: It is well established that the depolarization of a smooth muscle membrane by potassium renders the latter permeable to extracellular calcium and induces muscle contraction. Consequently, the measurement of the inhibition of the contractile response to depolarization by potassium, or the measurement of a relaxation of the tonic contraction on potassium depolarization, can represent an evaluation of the power of a compound as an inhibitor of the membrane permeability to Ca^++ ions. The technique used was as follows: The aorta was removed from male Wistar rats weighing approximately 300 g, and cut into strips approximately 40 mm long and 3 mm wide. These fragments were placed in a 25-ml isolated organ trough containing a modified Krebs-bicarbonate solution (112 mM NaCl; 5 mM KCl; 25 mM NaHCO3; 1 mM KH2 PO4; 1.2 mM MgSO4; 2.5 mM CaCl2; 11.5 mM glucose, distilled water to 1000 ml) through which a stream of 5-7% carbon dioxide in oxygen was passed, and maintained at 37° C. The preparation was connected to a force microsensor and the contractile response recorded after amplification on a recorder. A tension of 2 g was applied to the preparation. This tension was maintained for 60 minutes in the modified Krebs-bicarbonate solution, and contractions were then induced by replacing the Krebs-bicarbonate solution by a potassium-Krebs solution (17 mM NaCl; 100 mM KCl; 25 mM NaHCO3; 1 mM KH2 PO4; 1.2 mM MgSO4; 2.5 mM CaCl2; 11.5 mM glucose; distilled water to 1000 ml). When the contractile response of the preparation had become reproducible, a given amount of a compound of the invention was introduced into the bath. Sixty minutes later, a new spasm was induced by potassium depolarization. The results obtained on the aorta used in the experiment were then expressed as a percentage of the maximum contractional effect before incubation with the test substance. By way of examples, the results which follow were obtained, the compounds of formula (1) being in the form of the base, hydrochloride or oxalate.

Where [1] appears, read: head printed "10^-" (exponent missing; first of three columns before 10^-6 M).

Counter-ions that a name gives are not always drawn.

For `COc1ccc(CCN(C)CCCOc2ccc(Sc3cc4ccccc4nn3)cc2)cc1OC` [Ex. 82, 3-[4-{3-[N-methyl-N-(3,4-dimethoxy-β-phenethyl)amio]propyloxy}phenylthio]cinnoline oxalate], for the setting “10^-6 M”, the activity at 1 µM came to 55%. Under “10^-7 M”, the activity at 0.1 µM was determined as 90.2%. The “% of the maximum contractional effect” value under setting [1] was found to be 6.7%.
Consider `COc1ccc(CN(C)CCCOc2ccc(S(=O)(=O)c3c(C(C)C)oc4ccccc34)cc2)cc1OC` [Ex. 88, 2-isopropyl-3-[4-{3-[N-methyl-N-(3,4-dimethoxy-benzyl)amino)propyloxy}benzenesulphonyl]benzofuran acid oxalate], for which the activity at 0.001 µM stood at 87%. Besides, the activity at 1 µM (10^-6 M) came to 8.7%. The activity at 0.1 µM (10^-7 M) is 11.2%. The activity at 0.01 µM (10^-8 M) turned out to be 61.9%.
With `COc1ccc(CCN(C)CCCOc2ccc(S(=O)(=O)c3c(C(C)C)oc4ccccc34)cc2)cc1OC.O=C(O)C(=O)O` [Ex. 90, 2-Isopropyl-3-[4-{3-[N-methyl-N-(3,4-dimethoxy-β-phenethyl)amino]propyloxy}benzenesulphonyl]benzofuran acid oxalate], the “% of the maximum contractional effect” value is, setting by setting: (10^-6 M, 1 µM) 0%; (10^-7 M, 0.1 µM) 21.3%; (10^-8 M, 0.01 µM) 56.9%.
For `COc1ccc(CN(C)CCOc2ccc(S(=O)(=O)c3c(C(C)C)oc4ccccc34)cc2)cc1OC` [Ex. 89, 2-Isopropyl-3-[4-{2-[N-methyl-N-(3,4-dimethoxy-benzyl)amino]ethyloxy}benzenesulphonylbenzofuran hemioxalate], the activity at 0.001 µM is 83.9%. For the same compound, the activity at 0.1 µM (10^-7 M) is 4.7%. For the same compound, the activity at 0.01 µM (10^-8 M) stood at 53.3%.
As to `COc1ccc(CCN(C)CCCOc2ccc(S(=O)(=O)c3ccc4ccccc4c3)cc2)cc1OC` [Ex. 103, 2-[4-{3-[N-methyl-N-(3,4-dimethoxy-β-phenethyl)amino]propyloxy}benzenesulphonyl]-naphthalene acid oxalate], the activity at 1 µM (10^-6 M) was determined as 16.8%. For the setting “10^-7 M”, the activity at 0.1 µM is 62.8%. Moreover, the activity at 0.01 µM (10^-8 M) was 83.3%.
Turning to `CCCCN(CCCC)CCCOc1ccc(S(=O)(=O)c2ccccn2)cc1` [Ex. 58, 2-{4-[3-(di-n-butylamino)propyloxybenzenesulphonyl}pyridine oxalate], the activity at 1 µM (10^-6 M) came to 84.7%. Also, under “10^-7 M”, the activity at 0.1 µM was found to be 88.9%. Moreover, the “% of the maximum contractional effect” value under setting [1] worked out at 37%.
As to `CCCCN(CCCC)CCCOc1ccc(Sc2ccncc2)cc1.O=C(O)C(=O)O.O=C(O)C(=O)O` [Ex. 56, 4-{4-[3-(di-n-butylamino)propyloxy]phenylthio}pyridine dioxalate], the activity at 1 µM (10^-6 M) is 58%. Also, the activity at 0.1 µM (10^-7 M) is 86.2%. Also, the “% of the maximum contractional effect” value under setting [1] is recorded as 2.6%.
Regarding `CC(C)c1cc2ccccn2c1S(=O)(=O)c1ccc(OCCCNC(C)(C)C)cc1` [Ex. 122, 2-isopropyl-3-{4-[3-tert-butylamino)propyloxy]benzenesulphonyl}indolizine hydrochloride], the activity at 0.001 µM stood at 92.5%. Besides, where the note is “10^-6 M”, the activity at 1 µM worked out at 5.4%. Also, the activity at 0.1 µM (10^-7 M) came to 28.1%. For the same compound, the activity at 0.01 µM (10^-8 M) was determined as 76.1%.
With `CCCCN(CCCC)CCCOc1c(C)cc(S(=O)(=O)c2c(CC)cn3ccccc23)cc1C.Cl` [Ex. 10, 2-Ethyl-1-{4-[3-(di-n-butylamino)propyloxy]-3,5-dimethylbenzenesulphonyl}indolizine hydrochloride], the activity at 1 µM (10^-6 M) came out at 2.9%. Also, the activity at 0.1 µM (10^-7 M) worked out at 49%. Further, for the setting “10^-8 M”, the activity at 0.01 µM was 82.6%. The Activity ratio (compound / Compound D) worked out at 2.2.
As for `CCc1cn2ccccc2c1S(=O)(=O)c1ccc(OCCCNC(C)(C)C)cc1` [Ex. 3, 2-ethyl-1-{4-[3-(tert-butylamino)propyloxy]benzenesulphonyl}indolizine hydrochloride], the activity at 1 µM (10^-6 M) stood at 30.7%.
As to `CCCCN(CCCC)CCCOc1ccc(S(=O)(=O)c2c(C(C)C)n(C)c3ccccc23)cc1` [Ex. 110, 1-Methyl-2-isopropyl-3-{4-[3-(di-n-butylamino)propyloxy]benzenesulphonyl}indole acid oxalate], the activity at 0.001 µM turned out to be 84.6%. Moreover, the activity at 1 µM (10^-6 M) turned out to be 0%. For the same compound, the activity at 0.1 µM (10^-7 M) was found to be 15.1%. Where the note is “10^-8 M”, the activity at 0.01 µM stood at 71%.
Consider `CC(C)c1cn2ccccc2c1S(=O)(=O)c1ccc(OCCCNCCc2ccccc2)cc1` [Ex. 31, 2-Isopropyl-1-{4-[3-(β-phenethylamino)propyloxy]benzenesulphonyl}indolizine hydrochloride], for which the activity at 1 µM (10^-6 M) is 16.8%. Further, the activity at 0.1 µM (10^-7 M) worked out at 31.8%. Also, under “10^-8 M”, the activity at 0.01 µM worked out at 73.9%.
Take `CCCCN(CCCC)CCCOc1ccc([S+]([O-])c2c(C(C)C)cn3ccccc23)cc1` (racemic) [Ex. 54, 4-[3-(di-n-butylamino)propyl]oxyphenyl(2-isopropyl-1-indolizinyl)sulphoxide oxalate]: the activity at 0.1 µM (10^-7 M) came to 74.3%. For the same compound, the activity at 0.01 µM (10^-8 M) turned out to be 82.4%.
For `COc1ccc(CCN(C)CCCOc2ccc(S(=O)(=O)c3cn[nH]c3C(C)C)cc2)cc1OC` [Ex. 100, 4-[4-{3-[N-methyl-N-(3,4-dimethoxy-β-phenethyl)amino]propyloxy}benzenesulphonyl]-5-isopropyl-pyrazole acid oxalate], the activity at 1 µM (10^-6 M) stood at 62.5%. Moreover, the activity at 0.1 µM (10^-7 M) is 87.6%. The “% of the maximum contractional effect” value under setting [1] amounted to 15.1%.
In the same order, the values of `CCCCN(CCCC)CCCOc1ccc(S(=O)(=O)c2cn[nH]c2C(C)C)cc1` [Ex. 125, 4-{4-[3-(di-n-butylamino)propyloxy]benzenesulphonyl}-5-isopropyl-pyrazole acid oxalate] are 79.3%, 90.4% and 38.6%.
Consider `CCN(CC)CCCOc1ccc(S(=O)(=O)c2c(C)cn3ccccc23)cc1` [Ex. 4, 2-Methyl-1-{4-[3-(diethylamino)propyloxy]benzenesulphonyl}indolizine oxalate], for which, for the setting “10^-6 M”, the activity at 1 µM was 77.2%.
Take `COc1ccc(NCCCOc2ccc(S(=O)(=O)c3c(C(C)C)cn4ccccc34)cc2)cc1OC` [Ex. 44, 2-Isopropyl-1-{4-[3-(3,4-dimethoxyanilino)propyloxy]benzenesulphonyl}indolizine hydrochloride]: the activity at 1 µM (10^-6 M) was found to be 29.8%. The activity at 0.1 µM (10^-7 M) worked out at 78.9%. In addition, the activity at 0.01 µM (10^-8 M) amounted to 89.5%.
For the compound `CCCCN(CCCC)CCCCOc1ccc(S(=O)(=O)c2c(C(C)C)cn3ccccc23)cc1` [Ex. 39, 2-Isopropyl-1-{4-[4-(di-n-butylamino)butyloxy]benzenesulphonyl}indolizine], the activity at 0.1 µM (10^-7 M) amounted to 17.9%. For the same compound, the activity at 0.01 µM (10^-8 M) worked out at 62.9%.
On to `COc1ccc(CN(C)CCCCOc2ccc(S(=O)(=O)c3c(C(C)C)oc4ccccc34)cc2)cc1OC` [Ex. 92, 2-Isopropyl-3-[4-{4-[N-methyl-N-(3,4-dimethoxy-benzyl)amino]butyloxy}benzenesulphonyl]benzofuran hemioxalate], for which the activity at 0.001 µM is 80.8%. For the same compound, the activity at 1 µM (10^-6 M) was determined as 3.8%. For the same compound, the activity at 0.1 µM (10^-7 M) came out at 31.5%. The activity at 0.01 µM (10^-8 M) turned out to be 61%.

Source of the values: US5147878A, “Aminoalkoxyphenyl derivatives, process of preparation and compositions containing the same” (Sanofi, priority 1986, dated 1992).
